Where a name gives a salt, the structure may show the parent alone. Read-outs that look alike come from different tables or passages of the source.

Series [1] concerns the target T1, human H1 receptor (Homo sapiens, UniProt P35367).
T1 construct: expressed in transfected cells
The experiment in a line: Histamine H1 functional antagonist assay (FLIPR): determination of antagonist pA2. It counts as cell-based. The procedure:
(§1) The human H1 receptor is cloned using known procedures described in the literature [Biochem. Biophys. Res. Commun., 201(2):894 (1994)]. Chinese hamster ovary (CHO) cells stably expressing the human H1 receptor are generated according to known procedures described in the literature [Br. J. Pharmacol., 117(6):1071 (1996)].
(§2) Histamine H1 functional antagonist assay: Determination of antagonist pA2 and duration
The histamine H1 receptor expressing CHO cells are seeded into non-coated black-walled clear bottom 96-well tissue culture plates as described above. Following overnight culture, growth medium is removed from each well, washed with 200 μl phosphate buffered saline (PBS) and is replaced with 50 μl loading dye (250 μM Brilliant Black, 1 μM Fluo-4 diluted in Tyrodes buffer+probenecid (145 mM NaCl, 2.5 mM KCl, 10 mM HEPES, 10 mM D-glucose, 1.2 mM MgCl2, 1.5 mM CaCl2, 2.5 mM probenecid, pH adjusted to 7.40 with NaOH 1.0 M)). Cells are incubated for 45 min at 37° C. The loading buffer is removed and the cells are washed as above, and 90 μl of Tyrodes buffer+probenecid is added to each well. 10 μl of test compound, diluted to the required concentration in Tyrodes buffer+probenecid (or 10 μl Tyrodes buffer+probenecid as a control) is added to each well and the plate is incubated for 30 min at 37° C., 5% CO2. The plates are then placed into a FLIPR™ (Molecular Devices, UK) to monitor cell fluorescence (λex=488 nm, λEM=540 nm) in the manner described in Sullivan et al., (In: Lambert DG (ed.), Calcium Signaling Protocols, New Jersey: Humana Press, 1999, 125-136) before and after the addition of 50 μl histamine over a concentration range of 1 mM-0.1 nM. The resultant concentration response curves are analysed by non-linear regression using a standard four parameter logistic equation to determine the histamine EC50, the concentration of histamine required to produce a response of 50% of the maximum response to histamine. The antagonist pA2 is calculated using the following standard equation: pA2=log(DR-1)- log[B] where DR=dose ratio, defined as EC50antagonist-treated/EC50control and [B]=concentration of antagonist.

Series [2] deals with T1, human H1 receptor. The experiment in a line: Histamine H1 functional antagonist assay: antagonist duration after washout. It counts as cell-based. As to conditions: at one or more time points. The protocol: as §1, §2
To determine the antagonist duration, cells are cultured overnight in non-coated black-walled clear bottom 96-well tissue culture plates, are washed with PBS and are incubated with a concentration of antagonist chosen to give an approximate DR in the range 30-300. Following the 30 min antagonist incubation period, the cells are washed two or three times with 200 μl of PBS and then 100 μl Tyrodes buffer is added to each well to initiate antagonist dissociation. Following incubation for predetermined times, typically 30-270 min at 37° C., the cells are then washed again with 200 μl PBS and are incubated with 100 μl Tyrodes buffer containing Brilliant Black, probenecid and Fluo-4 for 45 min at 37° C., as described above. After this period, the cells are challenged with histamine in the FLIPR™ as described above. The dose ratio at each time point is used to determine the fractional H1 receptor occupancy by the following equation: fractional receptor occupancy=(DR-1)/DR. The decrease in receptor occupancy over time approximates to a straight line and is analysed by linear regression. The slope of this straight line fit is used as an index of the dissociation rate of the antagonist. The dose ratios for antagonist treated cells and for antagonist treated and washed cells at each time point are used to calculate a relative dose ratio (rel DR) which is also used as an index of antagonist duration. Antagonists with long duration of action produce rel DR values close to 1, and antagonists with short duration of action produce rel DR values that approaches the dose ratio value obtained for antagonist treatment alone.

Series [3] has as its target T1, human H1 receptor. The series is described as follows: Histamine H1 functional antagonist assay (FLIPR): determination of functional pKi values. As to conditions: CHO cells expressing human H1, histamine at EC80; read-out: average pKi (pKb) at H1 (converted). It counts as cell-based.
Description: H1 receptor cell line generation and FLIPR assay protocol
1. Generation of histamine H1 cell line
as §1
Histamine H1 functional antagonist assay: Determination of functional pKi values […]
10 μl of test compound, diluted to the required concentration in Tyrodes buffer+probenecid (or 10 μl Tyrodes buffer+probenecid as a control) is added to each well and the plate is incubated for 30 min at 37° C., 5% CO2. The plates are then placed into a FLIPR™ (Molecular Devices, UK) to monitor cell fluorescence (λex=488 nm, αEM=540 nm) in the manner described in Sullivan et al., (In: Lambert DG (ed.), Calcium Signaling Protocols, New Jersey: Humana Press, 1999, 125-136) before and after the addition of 10 μl histamine at a concentration that results in the final assay concentration of histamine being EC80.
Functional antagonism is indicated by a suppression of histamine induced increase in fluorescence, as measured by the FLIPR™ system (Molecular Devices). By means of concentration effect curves, functional affinities are determined using standard pharmacological mathematical analysis.

The nature of series [4]: CNS penetration (intravenous bolus or infusion at steady state, blood and brain levels). As to conditions: male CD Sprague Dawley rats. Type of series: in vivo, rat. The procedure: (i) CNS penetration by bolus administration
Compounds are dosed intravenously at a nominal dose level of 1 mg/kg to male CD Sprague Dawley rats. Compounds are formulated in 5% DMSO/45% PEG200/50% water. Blood samples are taken under terminal anaesthesia with isoflurane at 5 min post-dose and the brains are also removed for assessment of brain penetration. Blood samples are taken directly into heparinised tubes. Blood samples are prepared for analysis using protein precipitation and brain samples are prepared using extraction of drug from brain by homogenisation and subsequent protein precipitation. The concentration of parent drug in blood and brain extracts is determined by quantitative LC-MS/MS analysis using compound-specific mass transitions.
(ii) CNS penetration following intravenous infusion at steady state
A loading dose of the compounds is given to male CD Sprague Dawley rats at a nominal dose level of 0.4 mg/kg. The compounds are then infused intravenously for 4 h at a nominal dose level of 0.1 mg/kg/h. Compounds are formulated in 2% DMSO/30% PEG200/68% water. Serial or terminal blood samples are taken at 0.5, 1.5, 2.5, 3, 3.5 and 4 h post dose. The final blood sample is collected under terminal anaesthesia with isoflurane and the brains are also removed for assessment of brain penetration. Blood samples are taken directly into heparinised tubes. Blood samples are prepared for analysis using protein precipitation and brain samples are prepared using extraction of drug from brain by homogenisation and subsequent protein precipitation. The concentration of parent drug in blood and brain extracts is determined by quantitative LC-MS/MS analysis using compound-specific mass transitions.

The mark [5] stands for this setting: CHO cells expressing human H1, histamine concentration response curves, read-out: average pA2 values at H1 (converted).

T1 sequence (P35367 whole entry): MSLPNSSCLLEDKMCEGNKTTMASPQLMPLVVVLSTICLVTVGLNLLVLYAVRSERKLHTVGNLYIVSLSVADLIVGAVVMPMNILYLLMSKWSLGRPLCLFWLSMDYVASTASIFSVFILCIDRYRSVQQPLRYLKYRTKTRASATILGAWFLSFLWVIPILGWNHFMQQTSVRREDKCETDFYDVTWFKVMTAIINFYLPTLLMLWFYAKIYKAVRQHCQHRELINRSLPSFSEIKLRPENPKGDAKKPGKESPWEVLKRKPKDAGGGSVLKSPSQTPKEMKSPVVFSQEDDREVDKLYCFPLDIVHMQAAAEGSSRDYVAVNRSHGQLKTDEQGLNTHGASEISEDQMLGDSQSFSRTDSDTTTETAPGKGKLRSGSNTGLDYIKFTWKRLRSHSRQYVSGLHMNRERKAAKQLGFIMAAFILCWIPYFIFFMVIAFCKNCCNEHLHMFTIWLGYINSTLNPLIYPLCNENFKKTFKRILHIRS

As to `O=c1c2ccccc2c(Cc2ccc(Cl)cc2)nn1C[C@H]1CCCN1CCCCCc1ccc(OCCCN2CCCCCC2)cc1` [Example 6, 4-[(4-Chlorophenyl)methyl]-2-({(2R)-1-[5-(4-{[3-(hexahydro-1H-azepin-1-yl)propyl]oxy}phenyl)pentyl]-2-pyrrolidinyl}methyl)-1(2H)-phthalazinone], the Kb at human H1 receptor [1] (setting [5]) was less than 1 nM. `O=c1c2ccccc2c(Cc2ccc(Cl)cc2)nn1C[C@H]1CCCN1CCCOc1ccc2c(c1)CCN(C1CCC1)CC2` [Example 15, 4-[(4-Chlorophenyl)methyl]-2-[((2R)-1-{3-[(3-cyclobutyl-2,3,4,5-tetrahydro-1H-3-benzazepin-7-yl)oxy]propyl}-2-pyrrolidinyl)methyl]-1(2H)-phthalazinone]: on human H1 receptor [1] (setting [5]), the Kb is less than 10 nM. In addition, the “duration of action compared with azelastine in the histamine H1 functional antagonist assay” value at human H1 receptor [2] is recorded as “longer duration of action than azelastine”. With `COc1ccc(Cc2nn(C[C@H]3CCCN3CCCCc3ccc(OCCCN4CCCCCC4)cc3)c(=O)c3ccccc23)cc1` [Example 7, 2-({(2R)-1-[4-(4-{[3-(Hexahydro-1H-azepin-1-yl)propyl]oxy}phenyl)butyl]-2-pyrrolidinyl}methyl)-4-{[4-(methyloxy)phenyl]methyl}-1(2H)-phthalazinone diformate], on human H1 receptor [3], the Ki was less than 10 nM. Further, the Kb on human H1 receptor [1] is less than 1 nM. In addition, at human H1 receptor [2], the “duration of action compared with azelastine in the histamine H1 functional antagonist assay” value is recorded as “longer duration of action than azelastine”. In series [4], the “CNS penetration compared with azelastine” value was “lower CNS penetration than azelastine”. As to `O=c1c2ccccc2c(Cc2ccc(Cl)cc2)nn1C1CCCN(CCCOc2ccc3c(c2)CCN(C2CCC2)CC3)CC1` (stereo not shown) [Example 16, 4-[(4-Chlorophenyl)methyl]-2-(1-{3-[(3-cyclobutyl-2,3,4,5-tetrahydro-1H-3-benzazepin-7-yl)oxy]propyl}hexahydro-1H-azepin-4-yl)-1(2H)-phthalazinone formate salt], in series [4], the “CNS penetration compared with azelastine” value was “comparable CNS penetration to azelastine”. In the case of `O=c1c2ccccc2c(Cc2ccc(Cl)cc2)nn1C1CCCN(CCCc2ccc(OCCCN3CCCCCC3)cc2)CC1` (stereo not shown) [Example 12, 4-[(4-Chlorophenyl)methyl]-2-{1-[3-(4-{[3-(hexahydro-1H-azepin-1-yl)propyl]oxy}phenyl)propyl]hexahydro-1H-azepin-4-yl}-1(2H)-phthalazinone], the Kb at human H1 receptor [1] (setting [5]) is less than 10 nM. Take `O=C(NCCN1CCCC(n2nc(Cc3ccc(Cl)cc3)c3ccccc3c2=O)CC1)c1ccc2c(c1)CCN(C1CCC1)CC2` (stereo not shown) [Example 18, N-(2-{4-[4-[(4-Chlorophenyl)methyl]-1-oxo-2(1H)-phthalazinyl]hexahydro-1H-azepin-1-yl}ethyl)-3-cyclobutyl-2,3,4,5-tetrahydro-1H-3-benzazepine-7-carboxamide diformate salt]: the Kb on human H1 receptor [1] was less than 10 nM. Moreover, the “duration of action compared with azelastine in the histamine H1 functional antagonist assay” value at human H1 receptor [2] is “longer duration of action than azelastine”. Consider `O=c1c2ccccc2c(Cc2ccc(O)cc2)nn1C[C@H]1CCCN1CCCCc1ccc(OCCCN2CCCCCC2)cc1` [Example 8, 2-({(2R)-1-[4-(4-{[3-(Hexahydro-1H-azepin-1-yl)propyl]oxy}phenyl)butyl]-2-pyrrolidinyl}methyl)-4-[(4-hydroxyphenyl)methyl]-1(2H)-phthalazinone], for which the Kb at human H1 receptor [1] (setting [5]) was less than 10 nM. Moreover, the “duration of action compared with azelastine in the histamine H1 functional antagonist assay” value at human H1 receptor [2] is listed as “longer duration of action than azelastine”. In the same order, the values of `O=c1c2ccccc2c(Cc2ccc(F)cc2)nn1C[C@H]1CCCN1CCCCc1ccc(OCCCN2CCCCCC2)cc1` [Example 9, 4-[(4-Fluorophenyl)methyl]-2-({(2R)-1-[4-(4-{[3-(hexahydro-1H-azepin-1-yl)propyl]oxy}phenyl)butyl]-2-pyrrolidinyl}methyl)-1(2H)-phthalazinone] are less than 1 nM and “longer duration of action than azelastine”. For `O=c1c2ccccc2c(Cc2ccc(Cl)cc2)nn1C1CCCN(CCc2ccc(OCCCN3CCCCCC3)cc2)CC1` (stereo not shown) [Example 11, 4-[(4-Chlorophenyl)methyl]-2-{1-[2-(4-{[3-(hexahydro-1H-azepin-1-yl)propyl]oxy}phenyl)ethyl]hexahydro-1H-azepin-4-yl}-1(2H)-phthalazinone], the Kb at human H1 receptor [1] (setting [5]) was less than 10 nM. Same read-out and setting: in the case of `CN(CCCCc1ccc(OCCCN2CCCCCC2)cc1)CCn1nc(Cc2ccc(Cl)cc2)c2ccccc2c1=O` [Example 3, 4-[(4-Chlorophenyl)methyl]-2-{2-[[4-(4-{[3-(hexahydro-1H-azepin-1-yl)propyl]oxy}phenyl)butyl](methyl)amino]ethyl}-1(2H)-phthalazinone] it was less than 10 nM. Compound `O=c1c2ccncc2c(Cc2ccc(Cl)cc2)nn1C[C@H]1CCCN1CCCCc1ccc(OCCCN2CCCCCC2)cc1` [Example 23, 4-[(4-Chlorophenyl)methyl]-2-({(2R)-1-[4-(4-{[3-(hexahydro-1H-azepin-1-yl)propyl]oxy}phenyl)butyl]-2-pyrrolidinyl}methyl)pyrido[3,4-d]pyridazin-1(2H)-one] registered a Kb on human H1 receptor [1] of less than 1 nM. For the same compound, the “duration of action compared with azelastine in the histamine H1 functional antagonist assay” value at human H1 receptor [2] is on record as “longer duration of action than azelastine”.

Source of the values: US20080039444A1, “COMPOUNDS” (GLAXO GROUP LIMITED, priority 2006, published 2008).
